Results from US6875865B1, “Selected derivatives of K-252a” (Cephalon, Inc., priority 1996, dated 2005).

Legend:
[1] = tested on: dissociated spinal cord cultures; experiment: Spinal Cord ChAT Activity Assay; type: cell-based, rat
Experimental: The effect of selected ring substituted K-252a derivatives on CHAT activity was assayed in dissociated spinal cord cultures prepared from fetal rats using the procedure described in U.S. Pat. No. 5,461,146, Columns 26 and 27, Examples 6 and 7. ChAT is the enzyme that catalyzes the synthesis of the neurotransmitter acetylcholine, and it is a specific biochemical marker for cholinergic neurons. In the spinal cord, the large majority of cholinergic neurons are motor neurons. Assay of this enzyme may thus be used as an indication of the effects of a factor, or actors, on the survival of cholinergic neurons and/or regulation of this enzyme.
(§1) Compounds which increased ChAT activity at least 120% of the control activity are considered active.

basal forebrain cultures = experiment: Basal Forebrain ChAT Activity Assay; type: cell-based, rat; conditions: day six
Experimental: Compounds of the invention were assessed for their ability to promote survival and increase in ChAT activity in basal forebrain cultures. ChAT activity in these cultures is a biochemical marker for the cholinergic neurons (less than 5% of the cells in culture), which represent the major cholinergic input to the hippocampal formation, olfactory nucleus, interpeduncular nucleus, cortex, amygdala, and parts of the thalamus. […] The basal forebrain was dissected from embryonic day 17 or 18 rat embryos and the cells were […] with Dispase™ (neutral protease, Collaborative Research). Neurons were plated at 5×10^4 cells/well (1.5×10^5 cells/cm^2) in wells of 96-well plates previously coated with […] and laminin. Cells were cultured in serum-free N2 medium containing 0.05% bovine serum albumin (BSA) (Bottenetein et al., supra) at 37° in a humidified atmosphere of 5% CO2/95% air. ChAT activity was measured in vitro at day six, using a modification of the Formum procedure (supra) according to McManaman et al. (supra) and Glicksman et al. (J. Neurochem. 61:210-221, 1993).
as §1

protein kinase C (PKC) = conditions: reported in the literature; cited from earlier work

| Structure (SMILES) | ChAT Activity maximum efficacy % of Control (conc) ([1]; concentration not given, at least 120% of control = active) | ChAT Activity maximum efficacy % of Control (conc) (basal forebrain cultures; concentration not given, tested between 10 nM and 500 nM, at least 120% of control = active) | ChAT Activity maximum efficacy % of Control (conc) ([1]; maximum efficacy at 300 nM) | ChAT Activity maximum efficacy % of Control (conc) (basal forebrain cultures; maximum efficacy at 250 nM) | inhibition of protein kinase C (PKC) (protein kinase C (PKC)) |
| --- | --- | --- | --- | --- | --- |
| COC(=O)C1(O)CC2OC1(C)n1c3ccc(CCSc4ccc(O)cc4)cc3c3c4c(c5c6cc(CCSc7ccc(O)cc7)ccc6n2c5c31)C(=O)NC4 (stereo not shown) [Compound 91] | <120 % of Control | <120 % of Control | – | – | – |
| COC(=O)C1(O)CC2OC1(C)n1c3ccc(CCSc4ccccn4)cc3c3c4c(c5c6cc(CCSc7ccccn7)ccc6n2c5c31)C(=O)NC4 (stereo not shown) [Compound 94] | – | – | 152 (300 nM) % of Control | 166 (250 nM) % of Control | – |
| COC(=O)C1(O)CC2OC1(C)n1c3ccc(CCCSC)cc3c3c4c(c5c6cc(CCCSC)ccc6n2c5c31)C(=O)NC4 (stereo not shown) [Compound 95] | – | – | 272 (300 nM) % of Control | 239 (250 nM) % of Control | – |
| COC(=O)C1(O)CC2OC1(C)n1c3ccccc3c3c4c(c5c6ccccc6n2c5c31)C(=O)NC4 (stereo not shown) [Compound K-252a, K-252a] | – | – | – | – | strongly inhibits |
